Results from patent US5942529A, “Benzisothiazolyl-substituted aminomethylchromans” (Bayer Aktiengesellschaft, priority 1995, dated 1999).
Where a name gives a salt, the structure may show the parent alone.

Columns and labels:
5-HT1 receptor = assay: Affinity for the 5-HT1 receptor (3H-serotonin binding, calf hippocampus membranes); details: calf hippocampus membrane preparations
Procedure: The values indicated are data which were determined from receptor binding studies using calf hippocampus membrane preparations. The radiolabelled ligand used for this purpose was ^3 H-serotonin. In the binding tests under 1) and 2), IC50 values are determined which indicate at which concentration of test substance 50% of the binding of the radioligand is displaced. Taking into account the dissociation constants and the concentration of radioligand, the inhibition constants Ki are calculated from this.

5-HT1A receptors = molecular target: T1, 5-HT1A receptors (Bos taurus, UniProt F6Q2H9); assay: Affinity for the 5-HT1A receptor (3H-ipsapirone binding, calf hippocampus membranes)
T1 construct: measured in calf hippocampus membranes; from tissue; host or cells: calf hippocampus membranes
T1 sequence (F6Q2H9 1-422): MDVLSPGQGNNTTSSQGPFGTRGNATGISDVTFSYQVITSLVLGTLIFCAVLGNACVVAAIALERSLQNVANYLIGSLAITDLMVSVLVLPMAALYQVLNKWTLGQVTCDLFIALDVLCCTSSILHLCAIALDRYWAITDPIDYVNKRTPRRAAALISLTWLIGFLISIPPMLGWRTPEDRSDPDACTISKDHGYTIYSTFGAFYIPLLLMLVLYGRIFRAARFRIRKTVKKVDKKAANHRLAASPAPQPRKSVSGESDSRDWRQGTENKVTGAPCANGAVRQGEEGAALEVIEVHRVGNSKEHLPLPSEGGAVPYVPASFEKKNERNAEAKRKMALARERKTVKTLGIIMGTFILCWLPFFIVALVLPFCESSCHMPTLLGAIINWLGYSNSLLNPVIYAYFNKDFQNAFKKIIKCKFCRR
Procedure: 2.) Affinity for the 5-HT1A receptor [W. U. Dompert et al., Naunyn-Schmiedeberg's Arch Pharmacol. (1985), 328, 467-470].
In this test, the binding of ^3 H-ipsapirone to 5-HT1A receptors is measured in calf hippocampus membranes.
In the binding tests under 1) and 2), IC50 values are determined which indicate at which concentration of test substance 50% of the binding of the radioligand is displaced. Taking into account the dissociation constants and the concentration of radioligand, the inhibition constants Ki are calculated from this.

[1] = tested on: permanent focal cerebral ischaemia (MCA-O); assay: Permanent focal cerebral ischaemia (middle cerebral artery occlusion, MCA-O) in rats; format: in vivo; details: rat, continuous infusion 4 hours after occlusion, assessed 7 days after operation
From the text: Animal model: permanent focal cerebral ischaemia ("middle cerebral artery occlusion"=MCA-O). MCA occlusion in rodents is a widely accepted animal model of stroke. Reference: Bederson, J. B. et al., Stroke, 17:472-476 (1986).
In order to produce permanent focal cerebral ischaemia, the left medial cerebral artery in rats is occluded by electrocoagulation. The resulting infarct volume in cortical (subcortical) regions which are supplied by the medial cerebral artery is used as a measure of the extent of the stroke-induced neuronal damage. Administration of substance: after occlusion as a continuous i.v. infusion (4 hours) of the test substance, beginning directly after operation. The animals are sacrificed for assessment 7 days after operation.

Structure (SMILES)	Ki (5-HT1 receptor)	Ki (5-HT1A receptors)	% Reduction of the infarct volume ([1]; 0.001 mg/kg i.v.)	% Reduction of the infarct volume ([1]; 0.01 mg/kg i.v.)	% Reduction of the infarct volume ([1]; 0.1 mg/kg i.v.)	% Reduction of the infarct volume ([1]; 0.003 mg/kg i.v.)
CC(C)(Cl)COc1cccc2c1OC(CNCCCCN1C(=O)c3ccccc3S1(=O)=O)CC2 (racemic) [Example 4]	2.8 nM	–	–	–	–	–
CC1(C)Cc2ccc3c(c2O1)OC(CNCCCCN1C(=O)c2ccccc2S1(=O)=O)CC3 (racemic) [Example 5]	0.5 nM	–	–	–	–	–
CC1(C)Cc2ccc3c(c2O1)OC(CNCCCCN1C(=O)c2ccccc2S1(=O)=O)CC3 (single isomer, unassigned) [Example 6]	–	0.9 nM	41%	41%	38%	–

Further lines, with some results ahead:

Ki (5-HT1 receptor)	Ki (5-HT1A receptors)	Structure (SMILES)	% Reduction of the infarct volume ([1]; 0.001 mg/kg i.v.)	% Reduction of the infarct volume ([1]; 0.01 mg/kg i.v.)	% Reduction of the infarct volume ([1]; 0.1 mg/kg i.v.)	% Reduction of the infarct volume ([1]; 0.003 mg/kg i.v.)
–	0.5 nM	CC(C)Oc1cccc2c1OC(CNCCCCN1C(=O)c3ccccc3S1(=O)=O)CC2 (single isomer, unassigned) [Example 2]	36%	48%	32%	–
–	1.8 nM	CC(C)(Cl)COc1cccc2c1OC(CNCCCCN1C(=O)c3ccccc3S1(=O)=O)CC2 (single isomer, unassigned) [Example 3]	37%	47%	–	34%
1.1 nM	–	CC(C)Oc1cccc2c1OC(CNCCCCN1C(=O)c3ccccc3S1(=O)=O)CC2 (stereo not drawn) [Example 1, 2-(N-(4-(1,1-Dioxido-3-oxo-2,3-dihydro-benzisothiazol-2-yl)butyl)amino)methyl-8-isopropoxy-chroman oxalate]	–	–	–	–
